Data on one compound can be found in US20120083464A1, “NEUROPROTECTIVE PROPERTIES OF 5'-METHYLTHIOADENOSINE” (priority 2009, published 2012).

Experiment [1] has as its system mixed cultures of neurons and astrocytes obtained from the cerebral cortex. The experiment in a line: Oxygen-glucose deprivation (simulated ischemia) in neuron-astrocyte co-cultures. The class given is cell-based, Sprague-Dawley rat. The text has this:
Primary neuron cultures were obtained from the cortical lobes of E18 Sprague-Dawley rat embryos according to previously described procedures (Cheung et al., 1998, Neuropharmacology 37:1419-1429). The cells were resuspended in B27 Neurobasal medium plus 10% FBS and then seeded in 24-well plates at 1-2×10^5 cells per well onto a monolayer of astrocytes which were previously prepared as described earlier (Vallejo-Illarramendi et al., 2005, Glia 50:276-279). One day later, the medium was replaced by B27-supplemented Neurobasal medium and 10% fetal bovine serum, and maintained at 37° C. and 5% CO2. Cultures were used 8-9 days after plating. Cultured neurons and astrocytes were identified using antibodies to microtubule associated protein-2 and glial fibrillary acidic protein, respectively.
Ischemic damage was induced by incubating cell cultures in a hyperbaric chamber for 1 hour in nitrogen-saturated buffer containing NaCl 130 mM, KCl 5.4 mM, CaCl2 0.1323 mM, […], MgCl2 0.8 mM, NaH2PO4 1.18 mM, 10 mM sucrose as a substitute of glucose, and the glyocolytic blocker iodoacetate (20 or 50 μM). After the insult, cells were incubated in normoxia, glucose added and iodoacetate removed for an additional period of 24 hours. […] The results are expressed as the mean±SEM of at least four independent experiments performed in triplicate.

For experiment [2], the system named is CA1 hippocampal neurons. The experiment in a line: Global ischemia (four-vessel occlusion, 10 min), Fluoro jade staining. In kind it is in vivo, Wistar rats. As to conditions: P<0.01. The procedure: Before surgical procedures, animals were fasted overnight. The rats were subjected to middle cerebral artery occlusion (MCAO) for 90 min using the intraluminal filament model as described previously (Rickhag et al, 2006; J Neurochem 96:14-29). Blood flow was monitored transcraneally with a doppler laser (Perimed). All physiologic parameters of animals included in the study were within normal ranges and included animals showing typical ischemia-induced behavioral deficits, rotational asymmetry, and dysfunctional limb placement. Rectal and body temperature was maintained at 37° C. during surgery and ischemia with a heating pad. Transient forebrain ischemia was induced by occlusion of the vertebral and common carotid arteries for 10 min according to the method described by Pulsinelli and Brierley (1979; Stroke 10, 267-272.). Criteria for forebrain ischemia were bilateral loss of the righting reflex, paw extension and mydriasis. […]
The animals were treated with MTA (30 or 100 mg/kg i.p.), twice daily reconstituted in Tris 300 mM, or placebo (Tris 300 mM) starting at 30 min of the onset of ischemia. […]

The test system of experiment [3] is caspase 3 activity. Description: NMDA-mediated increase in caspase 3 activity in mixed neuronal-glial culture. In kind it is cell-based, Sprague-Dawley rat. The conditions noted are these: NMDA 300 μM, MTA 250 μM or MK-801 10 μM. The method, then: Primary cultures of brain cortical neurons and glia were essentially prepared as described previously (Bruno et al., 2001, Eur. J. Neurosci., 13:1469-1478). The fronto-lateral cortical lobes were dissected out of Sprague-Dawley embryonic day 17 foetuses and were mechanically dissociated in Hanks' balanced solution. The cortical lobes were triturated by aspirating 7-10 times using a Pasteur pipette with a flame-narrowed tip. […]
Cortical neurons or mixed cortical neurons and glia were plated on poly-L-lysine-coated 6-well culture plates and after 7 DIV, cells were treated with vehicle or NMDA (300 μM) for different periods of time. […] Extracts were then centrifuged at 5,000×g for 10 min at 4° C., and protein content was determined by using the BCA protein assay according to the manufacturer instructions. Cell extracts (40 μg of protein) were incubated in reaction buffer (25 mM Hepes, 10% sucrose, 0.1% CHAPS, 10 mM DTT) containing 50 μM fluorescence substrate Z-DEVD-AFC at 37° C. for 1 h. Cleavage of the AFC fluorophore was determined in a spectrofluorometer at excitation wavelength of 400 nm and fluorescence was detected at an emission wavelength of 505 nm. Caspase 3 activity was expressed as units of fluorescence/mg of protein/h (Posadas et al., 2009, Pharm. Res., In press).

“Also recorded” adds a separate entry of the source.

Turning to `CSC[C@H]1O[C@@H](n2cnc3c(N)ncnc32)[C@H](O)[C@@H]1O` [MTA, 5′-methylthioadenosine], in experiment [1] (MTA at 10 μM), the “protection from OGD-induced damage compared with APV (50 μM)” value is “even more protective than APV”. Moreover, the “protection from OGD (ischemia)-induced damage” value in experiment [1] (OGD 1 hour with IAA at 20 or 50 μM, both conditions, assayed 24 hours later) is “highly protective”. In addition, the “CA1 hippocampal neuron cell death (Fluoro jade fluorescence)” value in experiment [2] (10 min global ischemia, MTA i.p. twice daily from 30 min post-ischemia, 7 days) is “protects”. For the same compound, the “lower levels of dying cells in the CA1 region versus vehicle (Fluoro jade)” value in experiment [2] (MTA 30 mg/kg i.p. twice daily, 7 days of reperfusion) was “about 50%”. In addition, the “protection against NMDA-induced caspase 3 activity” value in experiment [3] is “blockade of caspase 3 activation; also recorded: protection”.
